Key:
[1] = test system: anti-peptide IgG in plasma; assay: Test Example 4: peptide-specific IgG titer pre and post vaccination, bead-based multiplexed Luminex assay; format: in vivo, human; settings: for Pre-vaccination IgG Negative (number of patients) / Pre-vaccination IgG Positive (number of patients): cut off 10 FIU; for Post vaccination IgG: number of (positive) patients among vaccinated: positive IgG response; for Pre-vaccination IgG Negative patients: number of 2,588 patients below 10 FIU; for Pre-vaccination IgG Positive patients: number of 2,588 patients with ≥10 FIU; for Post vaccination IgG: (positive) patients: number of vaccinated patients with positive IgG response; for Correlation between immune responses and OS: Negative (mOS): patients with negative post-vaccination IgG response to the peptide; for Correlation between immune responses and OS: Positive (mOS): patients with positive post-vaccination IgG response to the peptide
Protocol: As described previously, IgG titer specific to the antigen peptides in plasma was measured by bead-based multiplexed Luminex assay (Luminex, Austin, Tex.) before and after vaccination, i.e., at the end of each cycle or at the end of the clinical trial (Non-Patent Literature 4). In brief, 30 mL of peripheral blood was obtained before and after vaccination. Plasma was incubated with 100 μL of peptide-coupled color-coded beads for 2 hours at 25° C. on a plate shaker. After the incubation, the resultant mixture was washed with a vacuum manifold apparatus and incubated with 100 μL of biotinylated goat anti-human IgG (gamma chain-specific; Vector Laboratories, Burlingame, Calif.) for 1 hour at 25° C. on a plate shaker. The plate was then washed, followed by addition of 100 μL of streptavidin-PE (Life Technologies) to each well, and incubation for 30 minutes at 25° C. on a plate shaker. The resultant beads were washed 4 times, followed by addition of 100 μL of Tween-PBS to each well, and detection of fluorescence intensity units (FIU) on the beads using the Luminex system. The cutoff values of anti-peptide IgG were set to 10 FIU in 100-fold diluted samples.
Pre-vaccination peptide-specific IgG titers to 31 peptides were measured using a Luminex system. As a detectable IgG level, 10 FIU was employed as the cut off level, as reported previously (Noguchi M, et al., Cancer Immunol Immunother. 2013 May; 62(5): 919-29; Sasada T, et al., Current Medicinal Chemistry. 21: 2332-2345, 2014; Kibe S, et al., Cancer Immunology Research 2014; 2(12): 1154-62).
Post-vaccination lgG titers were measured at the ends of the first cycle and the second cycle.

cancer patients = assay: Test Example 4: correlation between vaccination with individual peptides (or peptide sets) and OS, Cox proportional hazards regression; format: in vivo, human; settings: for HR: Cox proportional hazards regression, OS; for Correlation between immune responses and OS: Negative (mOS) / Correlation between immune responses and OS: Positive (mOS): Table 20, <64% neutrophil and ≥26% lymphocyte; for Correlation between immune responses and OS: Negative (mOS): vaccinated patients with negative IgG response; for Correlation between immune responses and OS: Positive (mOS): vaccinated patients with positive IgG response
Protocol: The Student's t-test and the chi-square test were used to compare quantitative and categorical variables, respectively. OS was calculated as the time in months from the date of clinical trial enrollment to death or to the date of last contact. Time-to-event endpoints were analyzed using the Kaplan-Meier method, and between-group comparison for OS was conducted using the log-rank test. Clinical efficacy of the individual peptides for OS was evaluated by univariate and multivariate analyses with the Cox proportional hazards regression model, and HR and 95% CI were calculated. All reported p-values were two-sided, and p-values less than 0.05 were considered significant. JMP version 12 or SAS version 9.4 software (SAS Institute Inc., Cary, N.C.) was used to perform all analyses.
Correlation levels of the 31 peptides for OS were evaluated by the Cox proportional hazards regression model.
Similarly, in the 2,085 advanced cancer patients (stage IV+recurrence) and the 503 non-advanced cancer patients (I-III stages) correlation levels of the 31 peptides for OS were evaluated by the Cox proportional hazards regression model. […]

[2] = Table 20, patients showing both <64% neutrophil and ≥26% lymphocyte
[3] = patients showing detectable levels
[4] = patients showing positive responses
[5] = Table 18, all 2,588 cases, vaccinated vs non-vaccinated
[6] = Table 18, all 2,588 cases, median OS of patients under PPV containing the peptide
[7] = Table 18, all 2,588 cases, median OS of patients under PPV not containing the peptide
[8] = Table 19, 2,085 advanced cancer patients (stage IV+recurrence)
[9] = Table 19, 2,085 advanced cancer patients (stage IV+recurrence), PPV containing the peptide
[10] = Table 19, 2,085 advanced cancer patients (stage IV+recurrence), PPV not containing the peptide
[11] = Table 21, patients showing both <64% neutrophil and ≥26% lymphocyte
[12] = Table 21, patients showing both <64% neutrophil and ≥26% lymphocyte, PPV containing the peptide
[13] = Table 21, patients showing both <64% neutrophil and ≥26% lymphocyte, PPV not containing the peptide
[14] = 2,085 advanced cancer patients (stage IV+recurrence)

Sequence | Post vaccination IgG Median (FIU) [1, 2] | Pre-vaccination IgG Median (FIU) [1, 2] [FIU] | Pre-vaccination IgG Negative (number of patients) [1, 2] | Pre-vaccination IgG Positive (number of patients) [1, 2] | Post vaccination IgG: number of (positive) patients among vaccinated [1, 2] | Pre-vaccination IgG Negative patients [1] | Pre-vaccination IgG Positive patients [1] | Post vaccination IgG: (positive) patients [1] | Pre-vaccination IgG Median (FIU) [1, 3] [FIU] | Post vaccination IgG Median (FIU) [1, 4] | Correlation between immune responses and OS: Negative (mOS) [1] [months] | Correlation between immune responses and OS: Positive (mOS) [1] [months] | HR (cancer patients; [5]) | Vaccinate cases (mOS) (cancer patients; [6]) | Non-vaccinate cases (mOS) (cancer patients; [7]) | HR (cancer patients; [8]) | Vaccinate cases (mOS) (cancer patients; [9]) | Non-vaccinate cases (mOS) (cancer patients; [10]) | Correlation between immune responses and OS: Negative (mOS) (cancer patients) [months] | Correlation between immune responses and OS: Positive (mOS) (cancer patients) [months] | other results
KLVERLGAA (listed as Homo sapiens) [Lck-246] | 15,377 FIU | 48 | 299 | 767 | 161(92) | 773 | 1,815 | 366(169) | 49 | 10,806 FIU | 8.3 | 19.3 | 1.0 | 366(11.4) M | 684(11.6) M | 1.0 | 300(9.8) M | 562(10.4) M | 8.7 | 28.2 | HR (cancer patients; [11]): 1.1; Vaccinate cases (mOS) (cancer patients; [12]): 161(15.4) M; Non-vaccinate cases (mOS) (cancer patients; [13]): 273(18.2) M
HYTNASDGL (listed as Homo sapiens) [Lck-208] | 9,551 FIU | 31 | 839 | 227 | 69(36) | 2,028 | 560 | 134(64) | 30 | 4,597 FIU | 16.0 | 30.5 | 0.9 | 134(19.7) M | 1,416(11.4) M | 0.7 | 103(17.1) M | 1143(10.0) M | 19.9 | 34 | median OS of non-vaccinated cases (cancer patients; [14]): 10 months; median OS of vaccinated cases (cancer patients; [14]): 17.1 months; HR (cancer patients; [11]): 0.7; Vaccinate cases (mOS) (cancer patients; [12]): 69(26.7) M; Non-vaccinate cases (mOS) (cancer patients; [13]): 556(17.6) M
VYDYNCHVDL (listed as Homo sapiens) [SART3-109] | 9,770 FIU | 30 | 572 | 494 | 192(116) | 1,382 | 1,206 | 474(223) | 31 | 7,875 FIU | 10.3 | 19.0 | 1.0 | 474(12.3) M | 1,948(11.5) M | 1.0 | 376(10.6) M | 1566(10.2) M | 17.1 | 24.1 | HR (cancer patients; [11]): 1.0; Vaccinate cases (mOS) (cancer patients; [12]): 192(19.8) M; Non-vaccinate cases (mOS) (cancer patients; [13]): 796(18.0) M
LLQAEAPRL (listed as Homo sapiens) [SART3-302] | 17,719 FIU | 84 | 375 | 691 | 173(138) | 948 | 1,640 | 408(271) | 84 | 14,958 FIU | 9.1 | 18.2 | 0.9 | 408(12.7) M | 642(10.5) M | 0.9 | 328(11.4) M | 534(9.8) M | 10.8 | 21.2 | HR (cancer patients; [11]): 0.9; Vaccinate cases (mOS) (cancer patients; [12]): 173(18.1) M; Non-vaccinate cases (mOS) (cancer patients; [13]): 261(16.3) M
ILGELREKV (listed as Homo sapiens) [WHSC2-141] | 18,171 FIU | 38 | 261 | 805 | 134(91) | 680 | 1,908 | 325(173) | 39 | 13,078 FIU | 7.7 | 19.0 | 1.0 | 325(12.1) M | 725(11.1) M | 1.0 | 271(11.1) M | 591(10.1) M | 12 | 28.2 | HR (cancer patients; [11]): 1.0; Vaccinate cases (mOS) (cancer patients; [12]): 134(18.0) M; Non-vaccinate cases (mOS) (cancer patients; [13]): 300(16.6) M
NYSVRYRPGL (listed as Homo sapiens) [MRP3-1293] | 6,491 FIU | 27 | 423 | 643 | 132(83) | 1,030 | 1,558 | 324(157) | 27 | 6,003 FIU | 8.6 | 20.6 | 1.1 | 324(11.9) M | 1,226(12.1) M | 1.0 | 253(10.5) M | 993(10.4) M | 12.6 | 24.3 | HR (cancer patients; [11]): 1.0; Vaccinate cases (mOS) (cancer patients; [12]): 132(17.5) M; Non-vaccinate cases (mOS) (cancer patients; [13]): 493(18.4) M

Reference: US20220233661A1, “METHOD OF DETERMINING ELIGIBILITY OF CANCER PATIENT FOR PEPTIDE VACCINE THERAPY” (priority 2019, published 2022)
